Reference: US6451834B1, “Indeno[1,2-c]-, naphtho[1,2-c]- and benzo[6,7]cyclohepta[1,2-c]pyrazole derivatives” (BASF Aktiengesellschaft, priority 1997, dated 2002)

tested on: not given; test: not given; conditions: not given

Structure (SMILES) | melting point [°C]
c1cncc(-c2n[nH]c3c2Cc2ccccc2-3)c1 [Example 1, 3-(3-Pyridyl)-1,4-dihydroindeno[1,2-c]pyrazole] | 223 to 224
COc1ccc(-c2n[nH]c3c2Cc2ccccc2-3)cc1 [Example 6, 3-(4-methoxyphenyl)-1,4-dihydroindeno[1,2-c]pyrazole] | 247
Cc1ccc(-c2n[nH]c3c2Cc2ccccc2-3)cc1 [Example 7, 3-(p-tolyl)-1,4-dihydroindeno[1,2-c]pyrazole] | 267 to 269
COc1ccc2c(c1)Cc1c(-c3cccs3)n[nH]c1-2 [Example 8, 6-methoxy-3-(2-thienyl)-1,4-dihydroindeno[1,2-c]pyrazole] | 212 to 214
c1ccc2c(c1)Cc1c(-c3ccsc3)n[nH]c1-2 [Example 29, 3-(3-thienyl)-1,4-dihydroindeno[1,2-c]pyrazole] | 219 to 220

Results, then the compound that gave them:

melting point [°C] | Structure (SMILES)
206 to 208 | c1csc(-c2n[nH]c3c2CCc2ccccc2-3)c1 [Example 3, 3-(2-Thienyl)-4,5-dihydro-1H-benz[g]indazole]
172 to 174 | COc1cccc(-c2n[nH]c3c2Cc2ccccc2-3)c1 [Example 5, 3-(3-methoxyphenyl)-1,4-dihydroindeno[1,2-c]pyrazole]
195 to 197 | c1coc(-c2n[nH]c3c2Cc2ccccc2-3)c1 [Example 9, 3-(2-furyl)-1,4-dihydroindeno[1,2-c]pyrazole]

target: T1, KDR tyrosine kinase (Homo sapiens, UniProt P35968); test: KDR in vitro ELISA; assay type: biochemical; conditions: ATP 5 μM
T1 construct: KDR intra-cellular domain (aa789-1354); poly-His6 (N); made in house; host or cells: SF-9 insect cells, recombinant baculovirus (pVL1393)
T1 sequence (P35968 789-1354): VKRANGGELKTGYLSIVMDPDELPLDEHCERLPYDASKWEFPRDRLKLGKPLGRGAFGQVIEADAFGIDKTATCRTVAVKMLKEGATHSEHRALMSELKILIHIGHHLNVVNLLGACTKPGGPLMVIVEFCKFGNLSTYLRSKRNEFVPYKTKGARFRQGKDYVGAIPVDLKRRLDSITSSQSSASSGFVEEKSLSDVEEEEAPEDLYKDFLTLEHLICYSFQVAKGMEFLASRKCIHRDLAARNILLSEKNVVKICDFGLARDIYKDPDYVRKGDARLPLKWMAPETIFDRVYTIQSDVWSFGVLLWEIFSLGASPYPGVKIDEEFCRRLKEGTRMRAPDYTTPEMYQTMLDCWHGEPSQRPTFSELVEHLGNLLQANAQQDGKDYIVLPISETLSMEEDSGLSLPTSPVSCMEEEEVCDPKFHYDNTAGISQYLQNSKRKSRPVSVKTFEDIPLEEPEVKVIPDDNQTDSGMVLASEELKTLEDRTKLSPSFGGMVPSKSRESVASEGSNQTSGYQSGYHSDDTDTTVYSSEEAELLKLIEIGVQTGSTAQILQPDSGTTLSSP
Procedure: The following procedure was used to assay the inhibitory effect of compounds of this invention on KDR tyrosine kinase activity:
Dilute PGT stock (50 mg/ml, frozen) in PBS to a 250 μg/ml. […] Add 125 μl PBS to blank wells. Cover with sealing tape and incubate overnight 37° C. Wash 1× with 250 μl washing buffer and dry for about 2 hrs in 37° C. dry incubator.
Prepare inhibitor solutions at a 4× concentration in 20% DMSO in water.
Prepare enzyme solution so that desired units are in 50 μl, e.g. for KDR make to 1 ng/μl for a total of 50 ng per well in the reactions. Store on ice.
Make 4× ATP solution to 20 μM from 100 mM stock in water. Store on ice.
Add 50 μl of the enzyme solution per well.
Add 25 μl 4× ATP for inhibitor assay.
Incubate for 10 minutes at room temperature.
Stop reaction by adding 50 μl 0.05N HCl per well.
Dilute 1 mg/ml aliquot of PY20-HRP (Pierce) antibody to 50 ng/ml in 0.1% BSA in PBS by a 2 step dilution (100×, then 200×).
Add 100 μl Ab per well. Incubate 1 hr at room temp. Incubate 1 hr at 4C.
Prepare TMB substrate and add 100 μl per well.
Monitor OD at 650 nm until 0.6 is reached.
Stop with 1M Phosphoric acid. Shake on plate reader.

IC50 [µM] | Structure (SMILES)
> 100 | Cc1c2c(nn1-c1ccccc1)-c1ccccc1C2=O
> 100 | C1=NC(n2nc(-c3ccccc3)cc2-c2ccccc2)NC1 (centres unmarked)

tested on: Human umbilical vein endothelial cells (HUVEC); test: HUVEC mitogenesis assay; assay type: cell-based; conditions: 50 ng/ml VEGF, tritiated thymidine, read-out: VEGF-Stimulated Mitogenesis IC50
Procedure: Human umbilical vein endothelial cells (HUVEC) were cultured in EGM-Complete Media (endothelial growth media supplemented with 10% FBS, hydrocortisone, epidermal growth factor and bovine brain extract as per the supplier's directions). Cells, media and supplements were purchased from Clonetics (San Diego, Calif.). The HUVEC Mitogenesis Assay was used to measure inhibition of mitogenesis induced by VEGF, FGF or Complete Media. Cells were harvested by trypsinization, washed once and suspended in Complete Media (CM) at a concentration of 5,000 cells/0.15 ml. Cells were seeded into 96-well plates at 5,000 cells/well and incubated at 37 C for 24 hours. Cells were washed once with serum-free media (SFM) and incubated under serum-free conditions for 24 hours. Non-serum starved control wells were cultured with CM during this period. Test compounds were prepared as 10 mM stock solutions in DMSO, diluted in SFM and added to wells over a concentration range (0.005-50 μM final concentration). Cells were incubated for 1 hour prior to addition of 50 ng/ml VEGF or FGF (R & D Systems, Minneapolis, Minn.). Complete media stimulated wells received the test compound and stimulus simultaneously. […] Plates were harvested onto filter mats with a Tomtec Harvester and counted with a Betaplate liquid scintillation counter (Wallac).

Structure (SMILES) | IC50 [µM]
c1csc(-c2n[nH]c3c2Cc2ccccc2-3)c1 | 2
